The values below come from patent US20220324862A1, “PYRIDOPYRIMIDINONE COMPOUNDS” (Acerand Therapeutics (USA) Limited, priority 2021, published 2022).

The subject of experiment [1] is cellular pERK in NCI-H1975 cells (EGFR/L858R-T790M). Kind of experiment: pERK Potency Assay. Format: cell-based. To be noted: Homo sapiens, 1 hour incubation, Western blot, read-out: IC50 value, cellular pERK level. An excerpt: The purpose of this assay is to measure the ability of test compounds to inhibit SOS1 function in cells. SOS1 activates RAS proteins by catalyzing the conversion of RAS-GDP to RAS-GTP in response to receptor tyrosine kinase activation. Activation of RAS induces a sequence of cellular signaling events that results in increased phosphorylation of ERK at Threonine 202 and Tyrosine 204 (pERK). The procedure described below measured the level of cellular pERK in response to test compounds in NCI-H1975 cells (EGFR/L858R-T790M).
NCI-H1975 cells were grown and maintained using media and procedures recommended by the ATCC. On the day prior to compound addition, cells were plated in 24-well cell culture plates (0.9 ml/well) and grown overnight in a 37° C., 5% CO2 incubator. Test compounds were prepared with 3-fold serial dilutions in DMSO, with a top concentration of 10 mM. On the day of the assay, 100 uL of each test compound diluted at 1:100 in media was added to each well of cell culture plate with final concentrations of the compound spanning 0.5 nM to 10 uM. After the compound was added, the cells were incubated for 1 hour at 37° C., 5% CO2. Following incubation, culture medium was removed, and the cells were washed once with phosphate buffered saline and lysed with lysis buffer (20 mM Tris-HCl, pH 7.5, 150 mM NaCl, 1 mM EDTA, 1 mM EGTA, 0.8% NP-40 plus 2× protease and phosphatase inhibitors). Cellular pERK level was determined using the Western blot analysis and quantified with Liqor software. Signal from Western blot was plotted and IC50 values were determined by fitting a 4-parameter sigmoidal concentration response model.
For orientation: In western blotting, separated proteins are transferred to a membrane and probed.

The target in experiment [2] is T1, protein-protein interaction between SOS1 and KRAS-G12D (Homo sapiens, UniProt Q07889).
T1 construct: The purified GST-SOS1 catalytic domain (residues 564-1049) was first diluted in assay buffer; made in house; host or cells: E. coli BL21 (DE3) for SOS1; E. coli BL21 carrying a BirA plasmid for KRAS-G12D
T1 sequence (Q07889 564-1049): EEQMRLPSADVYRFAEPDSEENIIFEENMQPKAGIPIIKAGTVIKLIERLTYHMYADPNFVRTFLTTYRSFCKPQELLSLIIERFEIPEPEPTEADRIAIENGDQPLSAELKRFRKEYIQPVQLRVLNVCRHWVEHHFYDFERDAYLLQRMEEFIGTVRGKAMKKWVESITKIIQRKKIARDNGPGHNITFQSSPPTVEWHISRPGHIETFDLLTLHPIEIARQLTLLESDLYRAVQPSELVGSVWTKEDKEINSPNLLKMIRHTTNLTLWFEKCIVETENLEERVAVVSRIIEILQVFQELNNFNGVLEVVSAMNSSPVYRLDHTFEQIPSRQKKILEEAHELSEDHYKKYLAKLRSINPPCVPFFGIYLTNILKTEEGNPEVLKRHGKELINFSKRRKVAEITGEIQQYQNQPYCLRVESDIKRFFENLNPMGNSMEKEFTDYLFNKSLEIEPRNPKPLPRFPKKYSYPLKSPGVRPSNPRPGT
The experiment can be described thus: HTRF Based Protein-Protein Interaction Assay. Format: binding. From the text: A KRAS-G12D and SOS1 binding/interaction assay was designed to measure the interaction between KRAS-G12D and SOS1 proteins. Utilizing HTRF (Homogeneous Time-Resolved Fluorescence) technology, the assay enabled simple and rapid characterization of compound and protein interaction in a high throughput format. This assay was used to examine potency of the compounds in inhibiting the protein-protein interaction between SOS1 and KRAS-G12D. […] Low IC50 values are indicative of high potency of the SOS1 inhibitor compound to disrupt SOS1 and Kras-G12D interaction.
Protein Expression and Purification. The corresponding gene sequence to human SOS1 (residues 564-1049, UniProt ID: Q07889; SEQ ID NO: 2) was synthesized and fused in frame with GST expression vector. After the desired sequence was confirmed, plasmid containing the sequence was transformed into the E. coli strain BL21 (DE3). Bacteria were growing at 37° C. in LB media containing 50 μg/ml Kanamycin to give OD600 of 0.6-0.8. Then 0.2 mM IPTG was added to induce protein expression for 16 hours at 17° C. Bacteria were harvested by centrifugation and stored at −80° C. Bacteria pellets were resuspended in lysis buffer (25 mM Tris-HCl, 500 mM NaCl, 2 mM DTT, 2.3% sucrose, 0.3% dextran-10, 1 mM PMSF, pH 7.5) and lysed using high-pressure homogenizer. The lysate was cleared by centrifugation for 30 minutes (12000 rpm at 4° C.). The supernatant containing GST-SOS1 fragment was purified sequentially through Glutathione column and gel filtration (Hiload 16/600 Superdex […] column, Cytiva). The purified GST-SOS1 fragment was confirmed by SDS-PAGE and stored in 25 mM Tris-HCl, 100 mM NaCl, 1 mM DTT, 2.3% sucrose, 0.3% dextran-10, pH 7.5 at −80° C.
Kras-G12D Protein Purification. The sequence corresponding to human KRAS-G12D (residues 1-169, UniProt P01116-2; SEQ ID NO: 1) was synthesized and fused in frame with His-AVI-TEV vector. The plasmid was transformed into the E. coli strain BL21 (containing a plasmid that can generate BirA enzyme). Bacteria were growing at 37° C. in TB media containing 100 μg/ml ampicillin and 50 μg/ml Kanamycin to give OD600 of 0.6-0.8. The 0.5 mM IPTG and 50 mg/l biotin were added to induce protein expression for 16 hours at 25° C. Bacteria were harvested by centrifugation and stored at −80° C. Bacteria pellets were re-suspended in lysis buffer (20 mM Tris-HCl, 500 mM NaCl, 5 mM MgCl2, 2 mM […], 5% glycerol, pH 8.0) and lysed using high-pressure homogenizer. The lysate was cleared by centrifugation for 30 minutes (12000 rpm at 4° C.). The supernatant containing HIS-AVI-TEV-KRAS-G12D fragment was purified sequentially through Ni-NTA column (SMART), Streptactin column (SMART), and gel filtration (Hiload 16/600 Superdex 75 pg, GE). The purified HIS-AVI-TEV-KRAS-G12D fragment was confirmed by SDS-PAGE and stored in 50 mM HEPES-NaOH, 100 mM NaCl, 1 mM DTT, 5 mM MgCl2, pH 7.5 at −80° C.
Protein-Protein Interaction Assay. An assay buffer containing 50 mM HEPES, pH 7.5, 50 mM NaCl, 0.01% Brij-35, 1 mM TCEP, 0.1% BSA was prepared, and concentration series of test compounds were generated spanning from 0.5 nM to 10 μM over 10 3-fold serial dilutions in a 384-well assay plate at a volume of 20 pL. The purified GST-SOS1 catalytic domain (residues 564-1049) was first diluted in assay buffer and 5 μl of SOS1 (final concentration 2.5 nM in assay mixture) was directly dispensed into compound plates. After a spin down at 1000 RPM for 30 seconds, the SOS1/compound mixture was incubated at 25° C. for 15 minutes to allow the reaction between SOS1 and the compound. A KRAS-G12D mixture was prepared by incubation of avi-tagged Kras-G12D (residue 1-169) and GDP in assay buffer containing 10 mM MgCl2 at room temperature for 10 minutes. A KRAS-G12D and GDP mixture (5 μL) was added to the assay plate (final KRAS-G12D was 100 nM and GDP was 10 uM). The plate was centrifuged at 1000 rpm for 30 sec and incubated at 25° C. for 60 minutes. […]

The mark [3] stands for this setting: HTRF, GST-SOS1 2.5 nM, KRAS-G12D 100 nM, GDP 10 uM, read-out: IC50 value, inhibition of SOS1/KRAS-G12D protein-protein interaction.

Read-outs that look alike come from different tables or passages of the source. A value given as a limit tells only on which side of the number the result lay.

With `C#C[C@@H](Nc1ncnc2c1cc(C1=CC3CCC(C1)O3)c(=O)n2C)c1cccc(C(F)F)c1F` (some centres unmarked) [Compound 62], the IC50 in experiment [1] lay within 100 to 500 nM.

As to `C#C[C@@H](Nc1nc(C)nc2cc(=O)n(C3(C(F)F)CC3)cc12)c1cccc(C(F)F)c1F` [Compound 24, (R)-4-((1-(3-(difluoromethyl)-2-fluorophenyl)prop-2-yn-1-yl)amino)-6-(1-(difluoromethyl)cyclopropyl)-2-methylpyrido[4,3-d]pyrimidin-7(6H)-one], the IC50 was less than 100 nM in experiment [2] (setting [3]) and 100 to 500 nM in experiment [1].

On to `C#C[C@@H](Nc1ncnc2c1cc(C1(F)CCN(C(C)=O)C1)c(=O)n2C)c1cccc(C(F)F)c1F` (stereo partly drawn) [Compound 45, 6-(1-acetyl-3-fluoropyrrolidin-3-yl)-4-{[(1R)-1-[3-(difluoromethyl)-2-fluorophenyl]prop-2-yn-1-yl]amino}-8-methyl-7H,8H-pyrido[2,3-d]pyrimidin-7-one], for which the values for the IC50 in experiment [2] (setting [3]) and in experiment [1] were 100 to 200 nM and less than 100 nM, respectively.

As for `C#C[C@@H](Nc1ncnc2c1cc(C1=CC3CCC(C1)N3C(C)=O)c(=O)n2C)c1cccc(C(F)F)c1F` (some centres unmarked) [Compound 65], the IC50 in experiment [2] and in experiment [1] was less than 100 nM in each case.

With `C#C[C@@H](Nc1nc(C)nc2cc(=O)n(C3(C(F)F)CC3)cc12)c1cccc(C(F)F)c1C` [Compound 1, (R)-4-((1-(3-(difluoromethyl)-2-methylphenyl)prop-2-yn-1-yl)amino)-6-(1-(difluoromethyl)cyclopropyl)-2-methylpyrido[4,3-d]pyrimidin-7(6H)-one], the IC50 in experiment [2] (setting [3]) was less than 100 nM; in experiment [1], 100 to 500 nM.

Regarding `C#C[C@@H](Nc1ncnc2c1cc(C1(N)CCOCC1)c(=O)n2C)c1cccc(C(F)(F)F)c1C` [Compound 60], in experiment [1], the IC50 was less than 100 nM.

For `[2H]C([2H])([2H])n1c(=O)c(C2(F)CCN(C(C)=O)CC2)cc2c(N[C@H](C#C)c3cccc(C(F)(F)F)c3C)nc(C)nc21` [Compound 53], the results for the IC50 in experiment [2] (setting [3]) and in experiment [1] were 100 to 200 nM and less than 100 nM, respectively.

For `[2H]C([2H])([2H])n1c(=O)c(C2(OC)CCN(C(C)=O)CC2)cc2c(N[C@H](C#C)c3cccc(C(F)(F)F)c3C)nc(C)nc21` [Compound 50, 6-(1-acetyl-4-methoxypiperidin-4-yl)-8-(^2H3)methyl-2-methyl-4-{[(1R)-1-[2-methyl-3-(trifluoromethyl)phenyl]prop-2-yn-1-yl]amino}-7H,8H-pyrido[2,3-d]pyrimidin-7-one], the IC50 in experiment [2] (setting [3]) was 100 to 200 nM; in experiment [1], less than 100 nM.

As to `C#C[C@@H](Nc1ncnc2c1cc(C1(NC(C)=O)CC3CCC(C1)O3)c(=O)n2C)c1cccc(C(F)F)c1F` (stereo partly drawn) [Compound 61, N-(3(4-(((R)-1-3-(difluoromethyl)-2-fluorophenyl)prop-2-yn-1-yl)amino-8-methyl-7-oxo-7,8-dihydorpyrido[2,3-d]pyrimidin-6-yl)-8-oxabicyclo[3.2.1]octan-3-yl)acetamide], the IC50 in experiment [1] lay within 100 to 500 nM.

For `[2H]C([2H])([2H])n1c(=O)c(C2(O)CCN(C(C)=O)CC2)cc2c(N[C@H](C#C)c3cccc(C(F)(F)F)c3C)nc(C)nc21` [Compound 51, 6-(1-acetyl-4-hydroxypiperidin-4-yl)-8-(^2H3)methyl-2-methyl-4-{[(1R)-1-[2-methyl-3-(trifluoromethyl)phenyl]prop-2-yn-1-yl]amino}-7H,8H-pyrido[2,3-d]pyrimidin-7-one], the values for the IC50 in experiment [2] (setting [3]) and in experiment [1] were 100 to 200 nM and less than 100 nM, respectively.

Take `[2H]C([2H])([2H])n1c(=O)c(C2=CCN(C(C)=O)CC2)cc2c(N[C@H](C#C)c3cccc(C(F)(F)F)c3C)nc(C)nc21` [Compound 52, 6-(1-acetyl-1,2,3,6-tetrahydropyridin-4-yl)-8-(^2H3)methyl-2-methyl-4-{[(1R)-1-[2-methyl-3-(trifluoromethyl)phenyl]prop-2-yn-1-yl]amino}-7H,8H-pyrido[2,3-d]pyrimidin-7-one]: the IC50 in experiment [1] is 100 to 500 nM.

For the compound `C#C[C@@H](Nc1ncnc2c1cc(C1(NC(C)=O)CC3CCC(C1)N3C(C)=O)c(=O)n2C)c1cccc(C(F)F)c1F` (some centres unmarked) [Compound 64], in experiment [1], the IC50 fell in the range of 100 to 500 nM.

As for `C#C[C@@H](Nc1ncnc2c1cc(C1(O)CC3CCC(C1)N3C(C)=O)c(=O)n2C)c1cccc(C(F)F)c1F` (some centres unmarked) [Compound 63], the IC50 in experiment [1] lay in the range of 100 to 500 nM.
